Reference: patent US7553966B2, “Glucocorticoid mimetics, methods of making them, pharmaceutical compositions, and uses thereof” (Boehringer Ingelheim Pharmaceuticals, Inc., priority 2002, dated 2009)

Assays:
glucocorticoid receptor = experiment: Glucocorticoid Receptor Cell Assays (agonist activity in one or more of the above assays); format: cell-based; settings: qualitative statement; assay not specified
Method: B. Glucocorticoid Receptor Cell Assays
1. Induction of Aromatase in Fibroblasts (Cell Assay for Transactivation)
Dexamethasone, a synthetic ligand to the glucocorticoid receptor (GR), induces expression of aromatase in human foreskin fibroblast cells. The activity of aromatase is measured by the conversion of testosterone to estradiol in culture media.
On the day of the experiment, the media in the wells is replaced with fresh media. Cells are treated with test compounds to final concentrations of 10^−5 M to 10^−8 M, and testosterone to a final concentration of 300 ng/mL. Each well has a total volume of 100 μL. Samples are made in duplicates. Control wells include: (a) wells that receive testosterone only, and (b) wells that receive testosterone plus 2 μM of dexamethasone to provide maximum induction of aromatase. Plates are incubated at 37° C. overnight (15 to 18 hours), and supernatants are harvested at the end of incubation. […] The amount of estradiol is inversely proportional to the ELISA signals in each well. The extent of aromatase induction by test compounds is expressed as a relative percentage to dexamethasone. EC50 values of test compounds are derived by non-linear curve fitting.
2. Inhibition of IL-6 Production in Fibroblasts (Cell Assay for Transrepression)
Human foreskin fibroblast cells produce IL-6 in response to stimulation by pro-inflammatory cytokine IL-1.
On the next day, media in the wells is replaced with fresh media. Cells are treated with IL-1 (rhIL-1α, R&D Systems Cat. No. 200-LA) to a final concentration of 1 ng/mL, and with test compounds to final concentrations of 10^−5 M to 10^−8 M, in a total volume of 200 μL per well. Samples are done in duplicates. […] Positive control wells receive IL-1 only and represent maximum (or 100%) amount of IL-6 production. Plates are incubated at 37° C. overnight (15 to 18 hours), and supernatants are harvested at the end of incubation. IL-6 levels in the supernatants are determined by the ELISA kits for IL-6 (MedSystems Diagnostics GmbH, Vienna, Austria, Cat. No. BMS213TEN) according to manufacture's instructions. The extent of inhibition of IL-6 by test compounds is expressed in percentage relative to positive controls. IC50 values of test compounds are derived by non-linear curve fitting.
Evaluation of agonist or antagonist activity of compounds binding to the glucocorticoid receptor may be determined by any of the assays.
3. Modulation of Tyrosine Aminotransferase (TAT) Induction in Rat Hepatoma Cells
Testing of compounds for agonist or antagonist activity in induction of tyrosine aminotransferase (TAT) in rat hepatoma cells.
H4-II-E-C3 cells were incubated overnight in 96 well plates (20,000 cells/100 μL/well) in MEM medium containing 10% heat inactivated FBS and 1% nonessential amino acids. On the next day, cells were stimulated with the indicated concentrations of dexamethasone or test compound (dissolved in DMSO, final DMSO concentration 0.2%) for 18 hours. Control cells were treated with 0.2% DMSO. After 18 hours, the cells were lysed in a buffer containing 0.1% Triton X-100 and the TAT activity was measured in a photometric assay using tyrosine and alpha-ketoglutarate as substrates.
For measuring antagonist activity, the hepatoma cells were pre-stimulated by addition of dexamethasone (concentration ranges from 3×10^−9 M to 3×10^−8 M) shortly before the test compound was applied to the cells.
4. Modulation of MMTV-Luc Induction in HeLa Cells
Testing of compounds for agonist or antagonist activity in stimulation of MMTV-(mouse mammary tumor virus) promoter in HeLa cells.
Cells were cultured overnight in DMEM medium without phenol red, supplemented with 3% CCS (charcoal treated calf serum) and then transferred to 96 well plates (15,000 cells/100 μL/well).

[1] = target: T1, human glucocorticoid receptor (GR) complex (Homo sapiens, UniProt P04150); experiment: Glucocorticoid Receptor Competitive Binding Assay (fluorescence polarization, TAMRA-labeled dexamethasone probe); settings: qualitative statement; competition with TAMRA-labeled dexamethasone
T1 construct: made in house; host or cells: insect expression system (baculovirus lysate)
T1 sequence (P04150 1-777): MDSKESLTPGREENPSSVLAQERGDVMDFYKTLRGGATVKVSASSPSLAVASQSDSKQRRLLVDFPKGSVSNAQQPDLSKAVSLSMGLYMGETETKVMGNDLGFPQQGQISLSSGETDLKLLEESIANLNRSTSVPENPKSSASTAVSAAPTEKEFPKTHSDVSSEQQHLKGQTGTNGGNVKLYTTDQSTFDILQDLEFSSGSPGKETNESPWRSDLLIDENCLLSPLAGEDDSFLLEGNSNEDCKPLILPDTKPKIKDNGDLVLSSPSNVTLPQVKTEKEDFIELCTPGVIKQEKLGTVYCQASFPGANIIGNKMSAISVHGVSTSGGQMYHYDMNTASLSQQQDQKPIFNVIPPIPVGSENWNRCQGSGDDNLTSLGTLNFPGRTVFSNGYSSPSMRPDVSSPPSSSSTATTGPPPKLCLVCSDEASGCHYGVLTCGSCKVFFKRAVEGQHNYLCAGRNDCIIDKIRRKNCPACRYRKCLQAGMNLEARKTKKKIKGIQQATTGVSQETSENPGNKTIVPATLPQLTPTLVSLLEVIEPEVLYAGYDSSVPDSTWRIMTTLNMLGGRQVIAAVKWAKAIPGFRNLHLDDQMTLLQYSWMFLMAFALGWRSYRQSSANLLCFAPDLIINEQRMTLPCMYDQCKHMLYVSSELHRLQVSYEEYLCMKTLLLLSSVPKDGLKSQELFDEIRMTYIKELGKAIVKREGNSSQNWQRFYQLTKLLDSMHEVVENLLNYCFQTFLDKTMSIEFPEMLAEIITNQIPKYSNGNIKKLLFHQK
Procedure, shortened: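 Competition with TAMRA-dexamethasone for a human GR complex expressed in insect cells, read by fluorescence polarization. Buffer was 10 mM TES, 50 mM KCl, 20 mM Na2MoO4, 1.5 mM EDTA, 0.04% CHAPS, 10% glycerol, 1 mM DTT, pH 7.4.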

Row | SMILES | activity in the GR binding assay [1] | activity as agonists of the glucocorticoid receptor function in one or more of the above assays (glucocorticoid receptor)
1 | CC(C)(CC(O)(Cn1cc(C#N)c2ccccc21)C(F)(F)F)c1cccc2c1OCC2 (stereo not shown) |  | potent agonists
2 | CC(C)(CC(O)(Cc1cc2cc(C#N)ccc2[nH]1)C(F)(F)F)c1cccc2c1OCC2 (stereo not shown) |  | potent agonists
3 | COc1ccc(Br)cc1C(C)(C)CC(O)(Cc1cc2c(C)cc(C#N)cc2[nH]1)C(F)(F)F (stereo not shown) |  | potent agonists
4 | COc1ccccc1C(C)(C)CC(O)(Cc1cc2ccccc2[nH]1)C(F)(F)F (stereo not shown) [1,1,1-Trifluoro-2-(1H-indol-2-ylmethyl)-4-(2-methoxyphenyl)-4-methylpentan-2-ol] | potent activity | potent agonists
5 | CC(C)(CC(O)(Cc1cc2ccccc2[nH]1)C(F)(F)F)c1cccc(C(F)(F)F)c1 (stereo not shown) [1,1,1-Trifluoro-2-(1H-indol-2-ylmethyl)-4-methyl-4-(3-trifluoromethylphenyl)pentan-2-ol] | potent activity | potent agonists
6 | Cc1cc2c(c(C(C)(C)CC(O)(Cc3cc4ccccc4[nH]3)C(F)(F)F)c1)OCC2 (stereo not shown) [1,1,1-Trifluoro-2-(1H-indol-2-ylmethyl)-4-methyl-4-(5-methyl-2,3-dihydrobenzofuran-7-yl)pentan-2-ol] | potent activity | potent agonists
7 | Cc1cccc(C(C)(C)CC(O)(Cc2cc3ccccc3[nH]2)C(F)(F)F)c1 (stereo not shown) [1,1,1-Trifluoro-2-(1H-indol-2-ylmethyl)-4-methyl-4-m-tolylpentan-2-ol] | potent activity | potent agonists
8 | Cc1ccccc1C(C)(C)CC(O)(Cc1cc2ccccc2[nH]1)C(F)(F)F (stereo not shown) [1,1,1-Trifluoro-2-(1H-indol-2-ylmethyl)-4-methyl-4-o-tolylpentan-2-ol] | potent activity | potent agonists
9 | COc1ccc(F)cc1C(C)(C)CC(O)(Cc1cc2cccc(F)c2[nH]1)C(F)(F)F (stereo not shown) [1,1,1-Trifluoro-2-(7-fluoro-1H-indol-2-ylmethyl)-4-(5-fluoro-2-methoxyphenyl)-4-methylpentan-2-ol] | potent activity | potent agonists
10 | Cc1ccc(F)cc1C(C)(C)CC(O)(Cc1cc2ccncc2[nH]1)C(F)(F)F (stereo not shown) [1,1,1-Trifluoro-4-(5-fluoro-2-methylphenyl)-4-methyl-2-(1H-pyrrolo[2,3-c]pyridin-2-ylmethyl)pentan-2-ol] |  | potent agonists
11 | COc1ccc(F)cc1C(C)(C)CC(O)(Cc1cc2ccccc2[nH]1)C1CC1 (stereo not shown) [2-Cyclopropyl-4-(5-fluoro-2-methoxyphenyl)-1-(1H-indol-2-yl)-4-methylpentan-2-ol] |  | agonists
12 | CC(C)(CC(O)(Cc1[nH]c2ccccc2c1C#N)C(F)(F)F)c1cccc2c1OCC2 (stereo not shown) [2-[4-(2,3-Dihydrobenzofuran-7-yl)-2-hydroxy-4-methyl-2-trifluoromethylpentyl]-1H-indole-3-carbonitrile] |  | potent agonists

Continued, in another order:

Row | activity in the GR binding assay [1] | SMILES | activity as agonists of the glucocorticoid receptor function in one or more of the above assays (glucocorticoid receptor)
13 | potent activity | COc1ccccc1C(C)(C)CC(O)(Cc1ccnc2ccccc12)C(F)(F)F (stereo not shown) [1,1,1-Trifluoro-4-(2-methoxyphenyl)-4-methyl-2-quinolin-4-ylmethylpentan-2-ol] | potent agonists
14 | potent activity | Cc1cccc2[nH]c(CC(O)(CC(C)(C)c3cccc(F)c3)C(F)(F)F)cc12 (stereo not shown) [1,1,1-Trifluoro-4-(3-fluorophenyl)-4-methyl-2-(4-methyl-1H-indol-2-ylmethyl)pentan-2-ol] | potent agonists
15 | potent activity | COc1cccc(C(C)(C)CC(O)(Cc2ccnc3ccccc23)C(F)(F)F)c1 (stereo not shown) [1,1,1-Trifluoro-4-(3-methoxyphenyl)-4-methyl-2-quinolin-4-ylmethylpentan-2-ol] | potent agonists
16 | potent activity | COc1cc(F)ccc1C(C)(C)CC(O)(Cc1cc2ccccc2[nH]1)C(F)(F)F (stereo not shown) [1,1,1-Trifluoro-4-(4-fluoro-2-methoxyphenyl)-2-(1H-indol-2-ylmethyl)-4-methylpentan-2-ol] | potent agonists
17 | potent activity | COc1cc(F)ccc1C(C)(C)CC(O)(Cc1cc2ccncc2[nH]1)C(F)(F)F (stereo not shown) [1,1,1-Trifluoro-4-(4-fluoro-2-methoxyphenyl)-4-methyl-2-(1H-pyrrolo[2,3-c]pyridin-2-ylmethyl)pentan-2-ol] | potent agonists
18 | potent activity | COc1cc(F)ccc1C(C)(C)CC(O)(Cc1cc2cnccc2[nH]1)C(F)(F)F (stereo not shown) [1,1,1-Trifluoro-4-(4-fluoro-2-methoxyphenyl)-4-methyl-2-(1H-pyrrolo[3,2-c]pyridin-2-ylmethyl)pentan-2-ol] | potent agonists
19 | potent activity | COc1cc(F)ccc1C(C)(C)CC(O)(Cc1ccnc2c1CCCC2)C(F)(F)F (stereo not shown) [1,1,1-Trifluoro-4-(4-fluoro-2-methoxyphenyl)-4-methyl-2-(5,6,7,8-tetrahydroquinolin-4-ylmethyl)pentan-2-ol] | potent agonists
20 | potent activity | COc1cc(F)ccc1C(C)(C)CC(O)(Cc1ccnc2ccccc12)C(F)(F)F (stereo not shown) [1,1,1-Trifluoro-4-(4-fluoro-2-methoxyphenyl)-4-methyl-2-quinolin-4-ylmethylpentan-2-ol] | potent agonists
